The test concerns T1, α1-acid-glycoprotein (AAG); orosomucoid.
T1 construct: gene ORM1; docking only used 3kq0
The test is described as follows: intrinsic fluorescence quenching, excitation […] nm. Format: binding. Conditions: double-log; 297 K, 0.01 M phosphate buffer pH 7.4, 1.0 µM AAG, ligand stock in EtOH, inner filter corrected.

Consider `Cc1c2c(OCc3nn(CN4CCC(O)(c5ccc(Cl)cc5)CC4)c(=S)o3)nn(C)c(=O)c2c(C)n1-c1ccccc1` [compound 5, pyrrolo[3,4-d]pyridazinone derivative 5], for which the “Binding / Kb.10^4 [dm^3.mol^-1]” value was 1.41 × 10^4 dm^3·mol^−1.
In the case of `CCCCn1c(C)c2c(OCc3nn(CN4CCN(c5ccccc5)CC4)c(=S)o3)nn(C)c(=O)c2c1C` [compound 1, pyrrolo[3,4-d]pyridazinone derivative 1], the “Binding / Kb.10^4 [dm^3.mol^-1]” value was 3.09 × 10^4 dm^3·mol^−1.
`Cc1c2c(OCc3nn(CN4CCN(c5ccccc5)CC4)c(=S)o3)nn(C)c(=O)c2c(C)n1-c1ccccc1` [compound 3, pyrrolo[3,4-d]pyridazinone derivative 3]: the “Binding / Kb.10^4 [dm^3.mol^-1]” value is listed as 4.57 × 10^4 dm^3·mol^−1.
In the case of `Cc1c2c(OCc3nn(CN4CCN(c5ccc([N+](=O)[O-])cc5)CC4)c(=S)o3)nn(C)c(=O)c2c(C)n1-c1ccccc1` [compound 4, pyrrolo[3,4-d]pyridazinone derivative 4] it was 5.01 × 10^4 dm^3·mol^−1; in that of `CCCCn1c(C)c2c(OCc3nn(CN4CCC(O)(c5ccc(Cl)cc5)CC4)c(=S)o3)nn(C)c(=O)c2c1C` [compound 2, pyrrolo[3,4-d]pyridazinone derivative 2], 4.57 × 10^4 dm^3·mol^−1.

Values taken from paper PMC10855066, “Anti-Inflammatory and Antioxidant Pyrrolo[3,4-d]pyridazinone Derivatives Interact with DNA and Bind to Plasma Proteins—Spectroscopic and In Silico Studies” (International Journal of Molecular Sciences, 2024).
